Data: patent US6358885B1, “Substituted phenylheterocyclic herbicides” (Mississippi State University, priority 1992, dated 2002)

Columns and labels:
cheatgrass = test: Test B preemergence/postemergence greenhouse plant response rating 0 to 10; type: in vivo, Bromus secalinus; details: 0 to 10 scale
Outline: (§1)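 Both application timings were run together: seeds got compound preemergence, and established seedlings (two to eighteen cm) got it postemergence. Non-phytotoxic solvent carried the chemical. Ratings are visual, versus controls, at twelve to sixteen days.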

chickweed [1] = test: as above; type: in vivo, Stellaria media; details: 0 to 10 scale
Outline: as §1

corn = test: as above; type: in vivo, Zea mays; details: 0 to 10 scale
Outline: as §1

giant foxtail = test: as above; type: in vivo, Setaria faberii; details: 0 to 10 scale
Outline: as §1

sorghum = test: as above; type: in vivo, Sorghum bicolor; details: 0 to 10 scale
Outline: as §1

wild buckwheat [2] = test: as above; type: in vivo, Polygonum convolvulus; details: 0 to 10 scale
Outline: as §1

wild oat = test: as above; type: in vivo, Avena fatua; details: 0 to 10 scale
Outline: as §1

barley = test: Test C preemergence/postemergence greenhouse plant response rating 0 to 100; type: in vivo, Hordeum vulgare; details: POSTEMERGENCE; for Plant response rating Barley Igri: 0 to 100 scale
Outline: (§2)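 Compounds in non-phytotoxic solvent went onto sandy loam before emergence (seeded one day earlier) or onto plants at the one-to-four leaf stage. Duck salad was treated via flood water (~2.5 cm, maintained) over silt loam.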

chickweed [3] = test: as above; type: in vivo, Stellaria media; details: POSTEMERGENCE; for Plant response rating, Chickweed: 0 to 100 scale
Outline: as §2

cotton = test: as above; type: in vivo, Gossypium hirsutum; details: POSTEMERGENCE; for Plant response rating, Cotton: 0 to 100 scale
Outline: as §2

downy brome = test: as above; type: in vivo, Bromus tectorum; details: POSTEMERGENCE; for Plant response rating Downy Brome: 0 to 100 scale
Outline: as §2

lambsquarters = test: as above; type: in vivo, Chenopodium album; details: POSTEMERGENCE; for Plant response rating Lambsquarters: 0 to 100 scale
Outline: as §2

ryegrass = test: as above; type: in vivo, Lolium multiflorum; details: POSTEMERGENCE; for Plant response rating Ryegrass: 0 to 100 scale
Outline: as §2

soybean = test: as above; type: in vivo, Glycine max; details: POSTEMERGENCE; for Plant response rating, Soybean: 0 to 100 scale
Outline: as §2

sugar beet = test: as above; type: in vivo, Beta vulgaris; details: POSTEMERGENCE; for Plant response rating, Sugar beet: 0 to 100 scale
Outline: as §2

velvetleaf = test: as above; type: in vivo, Abutilon theophrasti; details: POSTEMERGENCE; for Plant response rating, Velvetleaf: 0 to 100 scale
Outline: as §2

wild buckwheat [4] = test: as above; type: in vivo, Polygonum convolvulus; details: POSTEMERGENCE; for Plant response rating, Wild buckwheat: 0 to 100 scale
Outline: as §2

duck salad = test: Test C flood test plant response rating 0 to 100; type: in vivo, Heteranthera limosa; details: for Plant response rating Duck salad: flood test species listed under POSTEMERGENCE, 0 to 100 scale
Outline: as §2

## CC(C)OC(=O)c1cc(-c2nn3c(c2Cl)CCCC3)c(F)cc1Cl [Compound 44]
cheatgrass; POSTEMERGENCE, Rate 50 g/ha
  Plant response rating, Cheatgrass: 7
cheatgrass; POSTEMERGENCE, Rate 200 g/ha
  Plant response rating, Cheatgrass: 10
cheatgrass; PREEMERGENCE, Rate 50 g/ha
  Plant response rating, Cheatgrass: 2
cheatgrass; Rate 200 g/ha, PREEMERGENCE
  Plant response rating, Cheatgrass: 6
Chickweed [1]; POSTEMERGENCE, Rate 200 g/ha
  Plant response rating, Chickweed: 10
Chickweed [1]; PREEMERGENCE, Rate 50 g/ha
  Plant response rating, Chickweed: 9
Chickweed [1]; Rate 200 g/ha, PREEMERGENCE
  Plant response rating, Chickweed: 9
corn; POSTEMERGENCE, Rate 50 g/ha
  Plant response rating, Corn: 4
corn; POSTEMERGENCE, Rate 200 g/ha
  Plant response rating, Corn: 6
corn; PREEMERGENCE, Rate 50 g/ha
  Plant response rating, Corn: 2
corn; Rate 200 g/ha, PREEMERGENCE
  Plant response rating, Corn: 3
Giant foxtail; POSTEMERGENCE, Rate 50 g/ha
  Plant response rating, Giant foxtail: 6
Giant foxtail; PREEMERGENCE, Rate 50 g/ha
  Plant response rating, Giant foxtail: 7
Giant foxtail; Rate 200 g/ha, POSTEMERGENCE
  Plant response rating, Giant foxtail: 9
Giant foxtail; Rate 200 g/ha, PREEMERGENCE
  Plant response rating, Giant foxtail: 8
sorghum; POSTEMERGENCE, Rate 50 g/ha
  Plant response rating, Sorghum: 4
sorghum; PREEMERGENCE, Rate 50 g/ha
  Plant response rating, Sorghum: 1
sorghum; Rate 200 g/ha, POSTEMERGENCE
  Plant response rating, Sorghum: 5
sorghum; Rate 200 g/ha, PREEMERGENCE
  Plant response rating, Sorghum: 2
Wild buckwheat [2]; POSTEMERGENCE, Rate 50 g/ha
  Plant response rating, Wild buckwheat: 10
Wild buckwheat [2]; PREEMERGENCE, Rate 50 g/ha
  Plant response rating, Wild buckwheat: 9
Wild buckwheat [2]; Rate 200 g/ha, POSTEMERGENCE
  Plant response rating, Wild buckwheat: 10
Wild buckwheat [2]; Rate 200 g/ha, PREEMERGENCE
  Plant response rating, Wild buckwheat: 9
Wild oat; POSTEMERGENCE, Rate 50 g/ha
  Plant response rating, Wild oat: 5
Wild oat; PREEMERGENCE, Rate 50 g/ha
  Plant response rating, Wild oat: 4
Wild oat; Rate 200 g/ha, POSTEMERGENCE
  Plant response rating, Wild oat: 8
barley; 62 g/ha
  Plant response rating Barley Igri: 40
barley; 250 g/ha
  Plant response rating Barley Igri: 60
barley; Rate 4 g/ha
  Plant response rating (0 to 100), Barley Igri: 10
barley; Rate 16 g/ha
  Plant response rating (0 to 100), Barley Igri: 30
Chickweed [3]; 62 g/ha
  Plant response rating, Chickweed: 95
Chickweed [3]; 250 g/ha
  Plant response rating, Chickweed: 100
Chickweed [3]; Rate 4 g/ha
  Plant response rating (0 to 100), Chickweed: 30
Chickweed [3]; Rate 16 g/ha
  Plant response rating (0 to 100), Chickweed: 80
cotton; 62 g/ha
  Plant response rating, Cotton: 100
cotton; 250 g/ha
  Plant response rating, Cotton: 100
cotton; Rate 4 g/ha
  Plant response rating (0 to 100), Cotton: 90
cotton; Rate 16 g/ha
  Plant response rating (0 to 100), Cotton: 100
Downy brome; 62 g/ha
  Plant response rating Downy Brome: 50
Downy brome; 250 g/ha
  Plant response rating Downy Brome: 90
Downy brome; Rate 4 g/ha
  Plant response rating (0 to 100), Downy Brome: 20
Downy brome; Rate 16 g/ha
  Plant response rating (0 to 100), Downy Brome: 40
lambsquarters; 62 g/ha
  Plant response rating Lambsquarters: 100
lambsquarters; 250 g/ha
  Plant response rating Lambsquarters: 100
lambsquarters; Rate 4 g/ha
  Plant response rating (0 to 100), Lambsquarters: 90
lambsquarters; Rate 16 g/ha
  Plant response rating (0 to 100), Lambsquarters: 100
ryegrass; 62 g/ha
  Plant response rating Ryegrass: 50
ryegrass; 250 g/ha
  Plant response rating Ryegrass: 90
ryegrass; Rate 4 g/ha
  Plant response rating (0 to 100), Ryegrass: 20
ryegrass; Rate 16 g/ha
  Plant response rating (0 to 100), Ryegrass: 30
soybean; 62 g/ha
  Plant response rating, Soybean: 50
soybean; 250 g/ha
  Plant response rating, Soybean: 70
soybean; Rate 4 g/ha
  Plant response rating (0 to 100), Soybean: 10
soybean; Rate 16 g/ha
  Plant response rating (0 to 100), Soybean: 30
Sugar beet; 62 g/ha
  Plant response rating, Sugar beet: 100
Sugar beet; 250 g/ha
  Plant response rating, Sugar beet: 100
Sugar beet; Rate 4 g/ha
  Plant response rating (0 to 100), Sugar beet: 80
Sugar beet; Rate 16 g/ha
  Plant response rating (0 to 100), Sugar beet: 100
velvetleaf; 62 g/ha
  Plant response rating, Velvetleaf: 100
velvetleaf; 250 g/ha
  Plant response rating, Velvetleaf: 100
velvetleaf; Rate 4 g/ha
  Plant response rating (0 to 100), Velvetleaf: 80
velvetleaf; Rate 16 g/ha
  Plant response rating (0 to 100), Velvetleaf: 90
Wild buckwheat [4]; 62 g/ha
  Plant response rating, Wild buckwheat: 100
Wild buckwheat [4]; 250 g/ha
  Plant response rating, Wild buckwheat: 100
Wild buckwheat [4]; Rate 4 g/ha
  Plant response rating (0 to 100), Wild buckwheat: 70
Wild buckwheat [4]; Rate 16 g/ha
  Plant response rating (0 to 100), Wild buckwheat: 90
Duck salad; POSTEMERGENCE section, flood test, Rate 4 g/ha
  Plant response rating (0 to 100), Duck salad: 0
Duck salad; Rate 16 g/ha, under POSTEMERGENCE head (flood test species)
  Plant response rating (0 to 100), Duck salad: 30
Duck salad; 62 g/ha
  Plant response rating Duck salad: 70
Duck salad; 250 g/ha
  Plant response rating Duck salad: 90
